Values of other authors in patent publication EP0214616A2, “Acetylenic prostaglandins” (G.D. Searle & Co., priority 1985, dated 1987).

System: gastric secretion
Conditions: at the highest dose tested (100ug/kg)

CCCCC(C)(O)C/C=C/[C@H]1[C@H](O)CC(=O)[C@@H]1CCC#CCCC(=O)OC (mixture of isomers) [Example C90001]
gastric antisecretory activity: devoid of gastric antisecretory activity
